Article PMC3179684 (Toxicological Sciences, 2011)
“Also recorded” adds a separate entry of the source. Where two headings read alike, the source gives them in different places.

Experiments:
epoxide hydrolase (EH) [1] = target: T1, epoxide hydrolase (EH) (Homo sapiens, UniProt P07099); assay: EO elimination in human liver microsomes; settings: pooled native human liver microsomes, best fit (Berkeley Madonna)
T1 sequence (P07099 1-455): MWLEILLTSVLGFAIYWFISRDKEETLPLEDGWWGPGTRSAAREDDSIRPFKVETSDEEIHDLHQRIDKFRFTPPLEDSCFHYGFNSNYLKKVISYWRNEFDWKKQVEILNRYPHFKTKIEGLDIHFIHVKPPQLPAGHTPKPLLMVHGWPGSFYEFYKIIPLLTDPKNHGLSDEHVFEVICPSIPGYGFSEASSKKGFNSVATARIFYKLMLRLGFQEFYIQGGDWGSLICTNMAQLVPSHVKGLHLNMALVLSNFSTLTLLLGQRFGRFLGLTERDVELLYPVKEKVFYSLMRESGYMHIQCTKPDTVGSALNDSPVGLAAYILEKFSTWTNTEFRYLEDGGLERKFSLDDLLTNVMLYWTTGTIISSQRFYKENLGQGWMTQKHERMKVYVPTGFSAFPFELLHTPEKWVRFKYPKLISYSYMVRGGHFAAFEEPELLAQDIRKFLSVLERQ

[2] = mouse; ref Dunkelberg, 1981; National Toxicology Program, 1987; cited from earlier work
epoxide hydrolase (EH) [3] = target: T2, epoxide hydrolase (EH) (Rattus norvegicus, UniProt P07687); assay: EO elimination in rat lung microsomes; assay type: in vitro ADME, Fischer 344 rats; settings: native pooled rat lung microsomes vs heat-inactivated, 5 mg protein/ml
T2 sequence (P07687 1-455): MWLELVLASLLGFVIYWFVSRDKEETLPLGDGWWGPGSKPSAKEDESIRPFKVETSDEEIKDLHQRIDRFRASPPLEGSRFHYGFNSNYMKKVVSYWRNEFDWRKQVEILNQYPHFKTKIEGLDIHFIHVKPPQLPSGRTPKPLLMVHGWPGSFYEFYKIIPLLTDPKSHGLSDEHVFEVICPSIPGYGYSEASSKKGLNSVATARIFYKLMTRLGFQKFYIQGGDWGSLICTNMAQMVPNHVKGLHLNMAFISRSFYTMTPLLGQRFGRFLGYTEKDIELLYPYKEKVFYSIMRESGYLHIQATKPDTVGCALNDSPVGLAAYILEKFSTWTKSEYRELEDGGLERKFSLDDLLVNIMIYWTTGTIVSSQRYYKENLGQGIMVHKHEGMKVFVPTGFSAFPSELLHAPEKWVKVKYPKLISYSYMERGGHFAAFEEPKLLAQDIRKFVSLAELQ

[4] = humans; ref IARC (1994b); cited from earlier work
epoxide hydrolase (EH) [5] = target: T3, epoxide hydrolase (EH) (Mus musculus, UniProt Q9D379); assay: EO elimination in mouse lung microsomes; assay type: in vitro ADME, B6C3F1 mice; settings: native pooled mouse lung microsomes vs heat-inactivated, 5 mg protein/ml
T3 sequence (Q9D379 1-455): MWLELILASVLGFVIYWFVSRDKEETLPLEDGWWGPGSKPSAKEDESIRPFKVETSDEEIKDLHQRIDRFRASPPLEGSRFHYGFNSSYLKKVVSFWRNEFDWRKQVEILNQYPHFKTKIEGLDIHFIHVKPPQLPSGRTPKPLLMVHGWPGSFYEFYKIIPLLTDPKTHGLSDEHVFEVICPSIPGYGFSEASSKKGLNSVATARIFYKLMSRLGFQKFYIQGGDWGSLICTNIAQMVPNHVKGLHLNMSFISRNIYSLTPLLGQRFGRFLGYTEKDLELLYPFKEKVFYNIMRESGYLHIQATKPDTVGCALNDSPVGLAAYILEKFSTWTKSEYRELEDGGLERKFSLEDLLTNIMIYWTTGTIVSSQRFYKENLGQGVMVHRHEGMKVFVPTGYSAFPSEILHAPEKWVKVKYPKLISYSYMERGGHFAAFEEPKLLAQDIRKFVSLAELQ

GSH levels in the livers = settings: Fischer rats exposed for 4 h to 1200 ppm EO; ref McKelvey and Zemaitis (1986); cited from earlier work
[6] = rat; ref Dunkelberg, 1982; Garman et al., 1985; Snellings et al., 1984; cited from earlier work
[7] = calculated from the data of ref Brown et al. (1996); cited from earlier work
[8] = tested on: glutathione S-transferase (GST); assay: GST-mediated EO elimination in human liver cytosol; assay type: in vitro ADME; settings: human pooled liver cytosol; taking a Km of 9 mmol/l
epoxide hydrolase (EH) [9] = target: T3, epoxide hydrolase (EH); assay: EO elimination in mouse liver microsomes; assay type: in vitro ADME, B6C3F1 mice; settings: native pooled mouse liver microsomes vs heat-inactivated, 5 mg protein/ml
[10] = tested on: glutathione S-transferase (GST); assay: GST-mediated EO elimination in mouse lung cytosol; assay type: in vitro ADME, B6C3F1 mice; settings: taking a Km of 9 mmol/l
Spontaneous = assay type: physicochemical; settings: MgCl2 containing potassium phosphate buffer pH 7.4, 37°C
CYP450 = assay: EO incubation in pooled rat liver microsomes with NADPH-regenerating system; assay type: in vitro ADME, Fischer 344 rats; settings: rat liver microsomal incubation with NADPH-regenerating system
[11] = Nonenzymatic conjugation with GSH; assay type: physicochemical; settings: GSH 15 mmol/l, 37°C, pH 7.4
[12] = tested on: glutathione S-transferase (GST); assay: GST-mediated EO elimination in rat lung cytosol; assay type: in vitro ADME, Fischer 344 rats; settings: taking a Km of 9 mmol/l
epoxide hydrolase (EH) [13] = target: T2, epoxide hydrolase (EH); assay: EO elimination in rat liver microsomes; assay type: in vitro ADME, Fischer 344 rats; settings: native pooled rat liver microsomes vs heat-inactivated, 5 mg protein/ml
[14] = tested on: glutathione S-transferase (GST); assay: GST-mediated EO elimination in rat liver cytosol; assay type: in vitro ADME, Fischer 344 rats; settings: rat pooled liver cytosol; taking a Km of 9 mmol/l
[15] = tested on: glutathione S-transferase (GST); assay: GST-mediated EO elimination in mouse liver cytosol; assay type: in vitro ADME, B6C3F1 mice; settings: mouse pooled liver cytosol; taking a Km of 9 mmol/l

C1CO1 [EO, ethylene oxide]
Vmax of EO elimination (epoxide hydrolase (EH) [1]): 14.35 nmol/min/mg protein | carcinogenicity [2]: carcinogenic | EH-catalyzed EO elimination (epoxide hydrolase (EH) [3]): no EH-catalyzed EO elimination was found | IARC evaluation [4]: carcinogenic to humans | EH-catalyzed EO elimination (epoxide hydrolase (EH) [5]): no EH-catalyzed EO elimination was found | GSH levels in the livers (GSH levels in the livers): less than 20 % of the control value | carcinogenicity [6]: carcinogenic | rate constant of the nonenzymatic elimination [7]: 0.001 min⁻¹ | Vmax of GST-mediated GSH conjugation with EO [8]: 10.3 nmol/min/mg protein | EH-catalyzed EO elimination (epoxide hydrolase (EH) [9]): not detectable; also recorded: no EH-catalyzed EO elimination was found | Vmax of GST-mediated GSH conjugation with EO [10]: 56.9 nmol/min/mg protein | mean half-life of spontaneous hydrolysis (Spontaneous): 12.4 h | rate constant of the spontaneous hydrolysis (Spontaneous; mean ± SE, n = 36): 0.00093 ± 7e-05 min⁻¹ | CYP-mediated EO elimination (CYP450): no CYP-mediated EO elimination was detected | mean half-life of nonenzymatic conjugation with GSH [11]: 3.7 h | Vmax of GST-mediated GSH conjugation with EO [12]: 16.0 nmol/min/mg protein | EH-catalyzed EO elimination (epoxide hydrolase (EH) [13]): not detectable; also recorded: no EH-catalyzed EO elimination was found | Vmax of GST-mediated GSH conjugation with EO [14]: 47.7 nmol/min/mg protein | Vmax of GST-mediated GSH conjugation with EO [15]: 251 nmol/min/mg protein
